Literature values in patent publication US10328111B2, “Water-soluble phytocannabinoid formulations” (Solva, LLC, priority 2014, dated 2019).

C=C(C)[C@@H]1CCC(C)=C[C@H]1c1c(O)cc(CCCCC)cc1O [cannabidiol]
oral bioavailability: about 6%
